Test results taken from US10966426B2, “Herbicidal compositions comprising phenylpyrimidines” (BASF SE, priority 2016, dated 2021).

What was measured:
Type in all cases: in vivo
[1] = system: Poa annua; assay: greenhouse post-emergence treatment, POAAN; conditions: Poa annua, 480 h, POAAN, 20 DAT
How it was run: (§1)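 Plants in loamy sand (~3.0% humus) were sprayed post-emergence at 3–15 cm height with actives in a water spray liquor made from 10% by weight emulsion concentrates. Plants were kept at 10-25° C. or 20-35° C. by species and rated over 2–4 weeks on a 0–100 scale (100 = complete destruction). Colby's E = X+Y−(X·Y/100) gave the expected additive effect.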

[2] = system: Alopecurus myosuroides; assay: greenhouse post-emergence treatment, ALOMY; conditions: Alopecurus myosuroides, 480 h, 20 DAT, ALOMY
How it was run: (§2)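 Plants were grown in pots of loamy sand with approximately 3.0% humus, either sown directly or transplanted as seedlings a few days before treatment, and sprayed with water-based treatments. They were kept at 10-25° C. or 20-35° C. depending on species and rated visually after 2 to 4 weeks on a 0–100 scale (100 = no emergence or complete destruction of above-ground parts).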

[3] = system: Papaver rhoeas; assay: greenhouse post-emergence treatment, PAPRH; conditions: Papaver rhoeas, 480 h, 20 DAT, PAPRH
How it was run: (§3)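 Post-emergence greenhouse spray on 3–15 cm plants, sown direct or transplanted a few days before treatment. Scored visually on a 0–100 scale after 2 to 4 weeks; expected additive effect computed by Colby: E=X+Y−(X·Y/100).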

[4] = system: Matricaria chamomilla; assay: greenhouse post-emergence treatment, MATCH; conditions: Matricaria chamomilla, 480 h, 20 DAT, MATCH
How it was run: as §3

[5] = system: Setaria viridis; assay: greenhouse post-emergence treatment, SETVI; conditions: Setaria viridis, 480 h, 20 DAT, SETVI
How it was run: as §2

[6] = system: Echinocloa crus-galli; assay: greenhouse post-emergence treatment, ECHCG; conditions: ECHCG, 20 DAT
How it was run: as §3

[7] = system: Digitaria sanguinalis; assay: greenhouse post-emergence treatment, DIGSA; conditions: Digitaria sanguinalis, 480 h, 20 DAT, DIGSA
How it was run: as §2

[8] = system: Bromus sterilis; assay: greenhouse post-emergence treatment, BROST; conditions: Bromus sterilis, 480 h, 20 DAT, BROST
How it was run: as §2

[9] = system: Ambrosia elatior; assay: greenhouse post-emergence treatment, AMBEL; conditions: AMBEL, 20 DAT
How it was run: as §1

[10] = system: Polygonum convolvulus; assay: greenhouse post-emergence treatment, POLCO; conditions: Fallopia convolvulus, 480 h, 20 DAT, POLCO
How it was run: as §3

[11] = 120 gai/ha (SL 480 g/l), Table X3, read-out: % activity, solo application
[12] = 240 gai/ha (SL 480 g/l), Table X3, read-out: % activity, solo application
[13] = 30 gai/ha (SL 480 g/l), Table X3, read-out: % activity, solo application
[14] = 60 gai/ha (SL 480 g/l), Table X3, read-out: % activity, solo application
[15] = solo pyridate (WP 45%) 112.5 gai/ha
[16] = solo pyridate (WP 45%) 225 gai/ha
[17] = solo pyridate (WP 45%) 450 gai/ha
[18] = solo pyridate (WP 45%) 900 gai/ha

Work on `CC(C)N1C(=O)c2ccccc2NS1(=O)=O` [bentazon] yielded a pest or weed control at 60 g/ha ([1]; bentazon solo 60 gai/ha) of 0%, an inhibition at 120 g/ha [2, 11] of 0% and an inhibition at 240 g/ha [2, 12] of 0%. The pest or weed control at 60 g/ha ([2]; bentazon solo 60 gai/ha) was 0%, the pest or weed control at 240 g/ha ([2]; bentazon solo 240 gai/ha) was 0% and the inhibition at 120 g/ha [3, 11] was 0%. For the same molecule, the pest or weed control at 30 g/ha ([3]; bentazon solo 30 gai/ha) was 0%, the pest or weed control at 60 g/ha ([3]; bentazon solo 60 gai/ha) was 0% and the pest or weed control at 120 g/ha ([3]; bentazon solo 120 gai/ha) was 0%. It also gave an inhibition at 30 g/ha [4, 13] of 20%, an inhibition at 60 g/ha [4, 14] of 30% and a pest or weed control at 30 g/ha ([4]; bentazon solo 30 gai/ha) of 0%. The pest or weed control at 60 g/ha ([4]; bentazon solo 60 gai/ha) was 0%, the pest or weed control at 120 g/ha ([4]; bentazon solo 120 gai/ha) was 0% and the inhibition at 60 g/ha [5, 14] was 0%. The inhibition at 240 g/ha [5, 12] was 30%, the “% activity” value ([6]; bentazon solo 30 gai/ha) was 0% and the “% activity” value ([6]; bentazon solo 60 gai/ha) was 0%. The “% activity” value ([6]; bentazon solo 120 gai/ha) was 0%, the “% activity” value ([6]; bentazon solo 240 gai/ha) was 20% and the inhibition at 60 g/ha ([6]; Echinochloa crus-galli, 480 h, 60 gai/ha (SL 480 g/l), Table X3, read-out: % activity, solo application) was 0%. The inhibition at 120 g/ha ([6]; Echinochloa crus-galli, 480 h, 120 gai/ha (SL 480 g/l), Table X3, read-out: % activity, solo application) was 0%, the inhibition at 240 g/ha ([6]; Echinochloa crus-galli, 480 h, 240 gai/ha (SL 480 g/l), Table X3, read-out: % activity, solo application) was 20% and the inhibition at 30 g/ha [7, 13] was 0%. The inhibition at 60 g/ha [7, 14] was 0%, the pest or weed control at 30 g/ha ([7]; bentazon solo 30 gai/ha) was 0% and the pest or weed control at 60 g/ha ([7]; bentazon solo 60 gai/ha) was 0%. It also gave a pest or weed control at 120 g/ha ([7]; bentazon solo 120 gai/ha) of 0%, a pest or weed control at 240 g/ha ([7]; bentazon solo 240 gai/ha) of 30% and an inhibition at 60 g/ha [8, 14] of 0%. The pest or weed control at 30 g/ha ([8]; bentazon solo 30 gai/ha) was 0%, the pest or weed control at 60 g/ha ([8]; bentazon solo 60 gai/ha) was 0% and the pest or weed control at 120 g/ha ([8]; bentazon solo 120 gai/ha) was 0%. For the same molecule, the pest or weed control at 240 g/ha ([8]; bentazon solo 240 gai/ha) was 0%, the “% activity” value ([9]; bentazon solo 30 gai/ha) was 60% and the “% activity” value ([9]; bentazon solo 60 gai/ha) was 60%.
Molecule `CCCCCCCCSC(=O)Oc1cc(Cl)nnc1-c1ccccc1` [pyridate] has a pest or weed control at 112.5 g/ha [1, 15] of 0%, a pest or weed control at 225 g/ha [1, 16] of 0% and a pest or weed control at 450 g/ha [1, 17] of 0%. It also gave a pest or weed control at 900 g/ha [2, 18] of 20%, an inhibition at 112.5 g/ha ([2]; pyridate solo 112.5 gai/ha) of 0% and an inhibition at 225 g/ha ([2]; pyridate solo 225 gai/ha) of 0%. The inhibition at 450 g/ha ([2]; pyridate solo 450 gai/ha) was 0%, the inhibition at 900 g/ha ([2]; pyridate solo 900 gai/ha) was 20% and the pest or weed control at 112.5 g/ha [3, 15] was 0%. For the same molecule, the pest or weed control at 225 g/ha [3, 16] was 10%, the pest or weed control at 450 g/ha [3, 17] was 50% and the pest or weed control at 900 g/ha [3, 18] was 70%. The inhibition at 112.5 g/ha ([3]; pyridate solo 112.5 gai/ha) was 0%, the inhibition at 225 g/ha ([3]; pyridate solo 225 gai/ha) was 10% and the inhibition at 450 g/ha ([3]; pyridate solo 450 gai/ha) was 50%. It also gave an inhibition at 900 g/ha ([3]; pyridate solo 900 gai/ha) of 70%, a pest or weed control at 112.5 g/ha [4, 15] of 0% and a pest or weed control at 225 g/ha [4, 16] of 0%. For the same molecule, the pest or weed control at 450 g/ha [4, 17] was 40%, the inhibition at 112.5 g/ha ([4]; pyridate solo 112.5 gai/ha) was 0% and the inhibition at 225 g/ha ([4]; pyridate solo 225 gai/ha) was 0%. The inhibition at 450 g/ha ([4]; pyridate solo 450 gai/ha) was 40%, the inhibition at 112.5 g/ha ([10]; pyridate solo 112.5 gai/ha) was 40% and the inhibition at 225 g/ha ([10]; pyridate solo 225 gai/ha) was 50%. It also gave a pest or weed control at 112.5 g/ha [5, 15] of 15%, a pest or weed control at 225 g/ha [5, 16] of 25% and a pest or weed control at 450 g/ha [5, 17] of 65%. The inhibition at 225 g/ha ([5]; pyridate solo 225 gai/ha) was 25%, the inhibition at 450 g/ha ([5]; pyridate solo 450 gai/ha) was 65% and the inhibition at 900 g/ha ([5]; pyridate solo 900 gai/ha) was 80%. The inhibition at 225 g/ha ([6]; Echinochloa crus-galli, 480 h, pyridate solo 225 gai/ha) was 30%, the pest or weed control at 112.5 g/ha [8, 15] was 0% and the pest or weed control at 225 g/ha [8, 16] was 0%. The pest or weed control at 900 g/ha [8, 18] was 0%, the “% activity” value [9, 15] was 0% and the “% activity” value [9, 16] was 10%. It also gave an inhibition at 112.5 g/ha ([9]; Ambrosia artemisiifolia, 480 h, pyridate solo 112.5 gai/ha) of 0%, an inhibition at 225 g/ha ([9]; Ambrosia artemisiifolia, 480 h, pyridate solo 225 gai/ha) of 10% and an inhibition at 450 g/ha ([9]; Ambrosia artemisiifolia, 480 h, pyridate solo 450 gai/ha) of 85%.
